Earlier results, collected in patent publication US20220031840A1, “Method of Treatment” (HaemaLogix Pty Ltd, priority 2018, published 2022).

Test system: CXCL10
Settings: elotuzumab phase I study; cited from earlier work

For “elotuzumab: antibody named as additional anti-cancer agent; phase I study cited (Zonder et al. 2012)”, the “Drug-induced change in CXCL10 levels” value is given as “drug-induced increases”.
